# Read-outs that look alike come from different tables or passages of the source.
# Assays:
# [1] = target: human (hACC2) (Homo sapiens, UniProt O00763); test: In vitro ACC inhibition assay (ADP-Glo), hACC2; format: biochemical; details: 5 nM ACC2, 20 μM ATP, 20 μM acetyl-CoA
# Experimental: The detailed procedure is as follows. […] 10 μL ADP glo reagent was added. […] 20 μL kinase detection reagent was added.
# [2] = system: C. krusei; test: Antifungal Activity Assay (broth microtiter MIC), C. krusei; format: cell-based, Candida krusei; details: Pichia kudriavzevii, ATCC6258, 48 h, ATCC 6258, 3 replicates, MIC recorded at 48 h, read-out: MIC, C. krusei ATCC 6258
# Outline: (§1)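 CLSI M27-A3 broth microdilution in RPMI 1640+MOPS, final inoculum 2.5×10^3 CFU/mL from overnight Sabouraud cultures grown at 35 °C. MIC read visually at 48 h against growth control.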
# [3] = system: C. parapsilosis; test: Antifungal Activity Assay (broth microtiter MIC), C. parapsilosis; format: cell-based, Candida parapsilosis; details: Lodderomyces parapsilosis, ATCC22019, 48 h, ATCC 22019, 3 replicates, MIC recorded at 48 h, read-out: MIC, C. parapsilosis ATCC 22019
# Outline: as §1
# [4] = system: Collectotrichum graminicola (Cg); test: Growth inhibition assay of fungal pathogens, Cg; format: cell-based; details: 48 h, Collectotrichum graminicola, read-out: Concentration at 90% Inhibition Cg
# Outline: (§2)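 Pathogen growth in 17% V8 broth is measured by OD600 at 24 and 48 hours, after blank subtraction, in the presence of compound at 50, 10 and 2 ppm or 2, 0.4 and 0.08 ppm. Inhibition in percent comes from 48-hour readings against the DMSO control.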
# [5] = system: Fusarium moniliforme (Fm); test: Growth inhibition assay of fungal pathogens, Fm; format: cell-based; details: Fusarium verticillioides, 48 h, Fusarium moniliforme, read-out: Concentration at 90% Inhibition Fm
# Outline: as §2
# [6] = system: Fusarium virguliforme (Fv); test: Growth inhibition assay of fungal pathogens, Fv; format: cell-based; details: 48 h, read-out: Concentration at 90% Inhibition Fv
# Outline: as §2
# [7] = system: Phytophthora capsici (Pc); test: Growth inhibition assay of fungal pathogens, Pc; format: cell-based; details: 48 h, read-out: Concentration at 90% Inhibition Pc
# Outline: as §2
# [8] = system: Rhizoctonia solani (Rs); test: Growth inhibition assay of fungal pathogens, Rs; format: cell-based; details: 48 h, mycelial plugs, read-out: Concentration at 90% Inhibition Rs
# [9] = system: Septoria tritici (St); test: Growth inhibition assay of fungal pathogens, St; format: cell-based; details: Zymoseptoria tritici, 48 h, Septoria tritici, read-out: Concentration at 90% Inhibition St
# Outline: as §2
# [10] = target: fungal (fACC2) (UniProt Q00955); details: read-out: fACC2 (in vitro ACC2 Inhibition Assay, IC50), ADP-Glo, 5 nM ACC2, 20 μM ATP, 20 μM acetyl-CoA
# fungal (fACC2), sequence (Q00955 whole entry): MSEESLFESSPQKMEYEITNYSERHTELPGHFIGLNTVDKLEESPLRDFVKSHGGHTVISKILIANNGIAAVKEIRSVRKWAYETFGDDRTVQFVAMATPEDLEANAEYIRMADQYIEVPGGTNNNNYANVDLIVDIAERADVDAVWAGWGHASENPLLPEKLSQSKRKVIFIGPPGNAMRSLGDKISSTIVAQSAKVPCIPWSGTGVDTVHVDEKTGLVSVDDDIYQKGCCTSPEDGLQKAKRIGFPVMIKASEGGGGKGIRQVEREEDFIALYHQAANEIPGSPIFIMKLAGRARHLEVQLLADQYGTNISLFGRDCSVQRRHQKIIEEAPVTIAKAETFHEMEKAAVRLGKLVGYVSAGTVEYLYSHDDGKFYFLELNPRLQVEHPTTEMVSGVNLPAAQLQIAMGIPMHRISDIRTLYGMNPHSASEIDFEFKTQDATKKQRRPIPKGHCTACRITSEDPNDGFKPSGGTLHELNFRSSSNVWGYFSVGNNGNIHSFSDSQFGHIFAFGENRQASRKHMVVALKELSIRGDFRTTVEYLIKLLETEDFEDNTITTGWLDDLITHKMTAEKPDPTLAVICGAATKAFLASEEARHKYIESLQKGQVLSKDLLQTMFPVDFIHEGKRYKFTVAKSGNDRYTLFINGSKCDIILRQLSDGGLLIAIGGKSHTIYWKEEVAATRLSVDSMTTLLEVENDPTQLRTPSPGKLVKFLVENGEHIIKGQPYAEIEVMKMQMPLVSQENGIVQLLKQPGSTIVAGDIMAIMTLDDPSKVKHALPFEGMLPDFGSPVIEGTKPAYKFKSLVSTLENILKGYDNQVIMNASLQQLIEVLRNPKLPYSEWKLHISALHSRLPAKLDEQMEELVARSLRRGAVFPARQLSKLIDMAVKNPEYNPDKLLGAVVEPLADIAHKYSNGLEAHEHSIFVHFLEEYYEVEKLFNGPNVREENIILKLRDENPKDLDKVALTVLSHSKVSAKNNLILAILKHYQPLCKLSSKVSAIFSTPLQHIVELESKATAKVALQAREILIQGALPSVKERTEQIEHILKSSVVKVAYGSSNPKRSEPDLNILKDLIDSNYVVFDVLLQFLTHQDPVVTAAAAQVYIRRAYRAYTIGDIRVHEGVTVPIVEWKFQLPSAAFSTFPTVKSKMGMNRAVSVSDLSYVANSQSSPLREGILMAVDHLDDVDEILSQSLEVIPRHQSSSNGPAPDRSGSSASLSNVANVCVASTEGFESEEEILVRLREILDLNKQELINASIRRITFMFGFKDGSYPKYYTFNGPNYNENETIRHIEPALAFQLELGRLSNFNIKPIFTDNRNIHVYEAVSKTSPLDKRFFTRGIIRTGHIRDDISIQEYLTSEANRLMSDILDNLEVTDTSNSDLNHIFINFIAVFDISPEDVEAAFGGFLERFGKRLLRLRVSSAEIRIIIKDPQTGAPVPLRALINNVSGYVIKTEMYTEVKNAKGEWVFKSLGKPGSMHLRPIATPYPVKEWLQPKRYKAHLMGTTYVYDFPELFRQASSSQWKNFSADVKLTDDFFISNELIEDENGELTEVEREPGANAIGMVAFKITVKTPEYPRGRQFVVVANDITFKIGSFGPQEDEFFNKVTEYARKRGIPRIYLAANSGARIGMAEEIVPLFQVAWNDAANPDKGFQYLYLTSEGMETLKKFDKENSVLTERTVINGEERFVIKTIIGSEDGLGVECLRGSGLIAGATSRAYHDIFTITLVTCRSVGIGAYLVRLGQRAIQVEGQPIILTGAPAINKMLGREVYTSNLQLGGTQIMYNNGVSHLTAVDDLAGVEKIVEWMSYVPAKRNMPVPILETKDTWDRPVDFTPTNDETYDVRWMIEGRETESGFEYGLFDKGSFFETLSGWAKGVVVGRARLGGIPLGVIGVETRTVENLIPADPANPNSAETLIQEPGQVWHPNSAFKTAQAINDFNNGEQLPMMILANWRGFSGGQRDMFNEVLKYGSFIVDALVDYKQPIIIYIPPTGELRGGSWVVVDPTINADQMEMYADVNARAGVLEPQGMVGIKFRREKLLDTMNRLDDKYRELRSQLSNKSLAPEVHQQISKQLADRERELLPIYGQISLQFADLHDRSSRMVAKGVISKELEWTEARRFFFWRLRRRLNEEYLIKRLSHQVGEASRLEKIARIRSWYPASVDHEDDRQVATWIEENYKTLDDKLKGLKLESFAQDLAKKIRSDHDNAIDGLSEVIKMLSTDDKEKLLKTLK
# [11] = growth inhibition at 48 hours vs 2% DMSO control
# [12] = growth inhibition vs 2% DMSO control at 48 hours
# human (hACC2), sequence (O00763 whole entry): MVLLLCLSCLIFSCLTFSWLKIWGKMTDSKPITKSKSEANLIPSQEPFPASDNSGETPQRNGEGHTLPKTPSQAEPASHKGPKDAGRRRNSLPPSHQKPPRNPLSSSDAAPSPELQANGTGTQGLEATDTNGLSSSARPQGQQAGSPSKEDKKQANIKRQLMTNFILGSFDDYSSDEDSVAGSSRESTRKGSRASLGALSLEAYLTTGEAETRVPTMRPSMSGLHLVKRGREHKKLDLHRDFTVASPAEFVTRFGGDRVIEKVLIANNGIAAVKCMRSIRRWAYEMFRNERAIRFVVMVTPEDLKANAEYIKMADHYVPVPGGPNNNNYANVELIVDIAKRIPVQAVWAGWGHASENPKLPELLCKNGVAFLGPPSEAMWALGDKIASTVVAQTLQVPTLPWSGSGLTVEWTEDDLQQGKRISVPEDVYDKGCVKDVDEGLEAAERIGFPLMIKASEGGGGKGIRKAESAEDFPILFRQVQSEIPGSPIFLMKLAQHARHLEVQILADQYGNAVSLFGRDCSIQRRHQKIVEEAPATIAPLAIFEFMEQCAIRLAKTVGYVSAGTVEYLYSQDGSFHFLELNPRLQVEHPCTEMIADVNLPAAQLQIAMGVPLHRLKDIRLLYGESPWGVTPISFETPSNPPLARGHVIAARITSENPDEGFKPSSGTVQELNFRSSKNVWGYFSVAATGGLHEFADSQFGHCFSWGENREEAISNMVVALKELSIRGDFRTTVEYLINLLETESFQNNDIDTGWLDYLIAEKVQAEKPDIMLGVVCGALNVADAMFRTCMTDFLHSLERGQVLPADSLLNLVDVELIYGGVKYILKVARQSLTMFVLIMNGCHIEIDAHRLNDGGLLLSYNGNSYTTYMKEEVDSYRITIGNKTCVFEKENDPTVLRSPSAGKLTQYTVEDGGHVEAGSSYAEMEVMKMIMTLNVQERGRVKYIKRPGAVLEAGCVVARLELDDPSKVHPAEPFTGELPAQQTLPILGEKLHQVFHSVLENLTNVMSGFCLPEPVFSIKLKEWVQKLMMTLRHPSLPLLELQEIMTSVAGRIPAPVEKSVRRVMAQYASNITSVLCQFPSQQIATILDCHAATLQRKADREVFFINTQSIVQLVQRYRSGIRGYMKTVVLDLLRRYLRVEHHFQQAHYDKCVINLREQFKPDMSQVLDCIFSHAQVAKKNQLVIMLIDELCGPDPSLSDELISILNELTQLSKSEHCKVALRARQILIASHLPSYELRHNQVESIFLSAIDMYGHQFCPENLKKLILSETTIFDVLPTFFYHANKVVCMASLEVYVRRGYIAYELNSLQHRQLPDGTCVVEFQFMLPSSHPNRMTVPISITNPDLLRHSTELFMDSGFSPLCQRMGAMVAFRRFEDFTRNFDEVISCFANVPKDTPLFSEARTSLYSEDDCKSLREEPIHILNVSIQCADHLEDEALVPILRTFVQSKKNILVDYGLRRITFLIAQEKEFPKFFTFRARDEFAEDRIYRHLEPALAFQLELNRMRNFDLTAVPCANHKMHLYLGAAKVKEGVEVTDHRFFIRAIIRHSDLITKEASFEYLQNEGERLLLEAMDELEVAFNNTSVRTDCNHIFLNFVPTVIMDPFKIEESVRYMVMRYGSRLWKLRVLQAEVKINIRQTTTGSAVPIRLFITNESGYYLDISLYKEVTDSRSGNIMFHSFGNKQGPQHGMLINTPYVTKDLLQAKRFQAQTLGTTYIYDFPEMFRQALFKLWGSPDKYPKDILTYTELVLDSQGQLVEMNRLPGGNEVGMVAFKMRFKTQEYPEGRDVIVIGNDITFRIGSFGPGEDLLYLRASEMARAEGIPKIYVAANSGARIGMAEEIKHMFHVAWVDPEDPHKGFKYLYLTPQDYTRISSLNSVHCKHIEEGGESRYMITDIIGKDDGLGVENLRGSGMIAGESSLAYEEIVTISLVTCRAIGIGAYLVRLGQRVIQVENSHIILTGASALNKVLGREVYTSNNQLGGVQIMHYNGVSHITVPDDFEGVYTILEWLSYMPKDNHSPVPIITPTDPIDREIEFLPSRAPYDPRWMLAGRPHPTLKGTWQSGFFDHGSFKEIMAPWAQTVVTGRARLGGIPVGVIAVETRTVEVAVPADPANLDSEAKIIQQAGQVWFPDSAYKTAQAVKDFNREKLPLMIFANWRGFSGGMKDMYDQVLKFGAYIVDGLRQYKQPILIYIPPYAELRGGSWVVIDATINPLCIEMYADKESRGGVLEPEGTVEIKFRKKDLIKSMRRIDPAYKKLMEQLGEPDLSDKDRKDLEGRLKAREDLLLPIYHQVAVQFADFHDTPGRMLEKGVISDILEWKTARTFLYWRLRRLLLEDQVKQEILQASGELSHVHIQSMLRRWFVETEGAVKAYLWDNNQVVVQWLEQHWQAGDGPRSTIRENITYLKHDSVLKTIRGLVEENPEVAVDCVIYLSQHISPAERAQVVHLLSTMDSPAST
Compound,IC50 ([1]; Table 2a) [nM],"IC50 ([1]; Table 2b, additional results) [nM]",MIC ([2]; Table 3a) [µg/mL],MIC ([2]; Table 3b (additional results)) [µg/mL],MIC ([3]; Table 3a) [µg/mL],MIC ([3]; Table 3b (additional results)) [µg/mL],"IC90 [4, 11] [µg/mL]","IC90 [4, 12] [µg/mL]","IC90 [5, 11] [µg/mL]","IC90 [5, 12] [µg/mL]","IC90 [6, 11] [µg/mL]","IC90 [6, 12] [µg/mL]","IC90 [7, 11] [µg/mL]","IC90 [7, 12] [µg/mL]","IC90 [8, 11] [µg/mL]","IC90 [8, 12] [µg/mL]","IC90 [9, 11] [µg/mL]","IC90 [9, 12] [µg/mL]",IC50 ([10]; Table 2a) [nM],"IC50 ([10]; Table 2b, additional results) [nM]"
"COc1ccc(F)cc1[C@H](Cn1c(=O)n(C(C)(C)C(=O)NCC(C)C)c(=O)c2c(C)c(-n3nccn3)sc21)OC1CCOCC1 [Compound I-29, (R)-2-(1-(2-(5-fluoro-2-methoxyphenyl)-2-((tetrahydro-2H-pyran-4-yl)oxy)ethyl)-5-methyl-2,4-dioxo-6-(2H-1,2,3-triazol-2-yl)-1,4-dihydro-thieno[2,3-d]pyrimidin-3(2H)-yl)-N-isobutyl-2-methylpropanamide]",5 to 10,5 to 10,0.06 to 0.24,0.06 to 0.249,0.25 to 1,0.25 to 1,0.4,0.4,0.08,0.08,0.4,0.4,> 50,> 50,2,2,10,> 50,1 to 5,1 to 5
"COCCO[C@@H](Cn1c(=O)n(CC(=O)N2CCCC2)c(=O)c2c(C)c(-n3nccn3)sc21)c1cc(F)ccc1OC [Compound I-79, (R)-1-(2-(5-fluoro-2-methoxyphenyl)-2-(2-methoxy-ethoxy)ethyl)-5-methyl-3-(2-oxo-2-(pyrrolidin-1-yl)ethyl)-6-(2H-1,2,3-tria-zol-2-yl)thieno[2,3-d]pyrimidine-2,4(1H,3H)-dione]",10 to 40,10 to 40,2.1 to 4,> 4.01,2.1 to 4,2.01 to 4,2,10,0.4,0.4,2,10,> 50,> 50,10,> 50,> 50,> 50,1 to 5,1 to 5
"COCCO[C@@H](Cn1c(=O)n([C@H](C)C(=O)N2CCCC2)c(=O)c2c(C)c(-n3nccn3)sc21)c1cc(F)ccc1OC [Compound I-65, 1-((R)-2-(5-fluoro-2-methoxyphenyl)-2-(2-methoxy-ethoxy)ethyl)-5-methyl-3-((R)-1-oxo-1-(pyrrolidin-1-yl)propan-2-yl)-6-(2H-1,2,3-triazol-2-yl)thieno[2,3-d]pyrimidine-2,4(1H,3H)-dione]",10 to 40,10 to 40,2.1 to 4,2.01 to 4,2.1 to 4,1.01 to 2,10,> 50,0.4,0.4,0.4,0.4,> 50,> 50,2,2,> 50,> 50,0.4 to 1,0.3 to 1
"C=CCN(C)C(=O)C(C)(C)n1c(=O)c2c(C)c(-n3nccn3)sc2n(C[C@H](OC2CCOCC2)c2cc(F)ccc2OC)c1=O [Compound I-71, (R)—N-allyl-2-(1-(2-(5-fluoro-2-methoxyphenyl)-2-((tetrahydro-2H-pyran-4-yl)oxy)ethyl)-5-methyl-2,4-dioxo-6-(2H-1,2,3-triazol-2-yl)-1,4-dihydrothieno[2,3-d]pyrimidin-3(2H)-yl)-N,2-dimethylpropanamide]",1 to 5,1 to 5,0.25 to 1,0.25 to 1,0.25 to 1,1.01 to 2,0.08,0.08,0.08,0.08,2,2,> 50,> 50,0.08,0.08,> 50,> 50,1 to 5,1 to 5
"CCNC(=O)C(C)(C)n1c(=O)c2c(C)c(-n3nccn3)sc2n(C[C@H](OCC(C)C)c2cc(F)ccc2OC)c1=O [Compound I-9, (R)—N-ethyl-2-(1-(2-(5-fluoro-2-methoxyphenyl)-2-isobutoxyethyl)-5-methyl-2,4-dioxo-6-(2H-1,2,3-triazol-2-yl)-1,4-dihydrothieno[2,3-d]pyrimidin-3(2H)-yl)-2-methylpropanamide]",5 to 10,1 to 5,0.25 to 1,0.25 to 1,2.1 to 4,1.01 to 2,0.4,0.4,0.08,0.08,0.4,0.4,> 50,> 50,0.4,0.4,10,> 50,,
"COc1ccccc1[C@H](Cn1c(=O)n(C(C)(C)C(N)=O)c(=O)c2c(C)c(-n3nccn3)sc21)OC1CCOCC1 [Compound I-14, (R)-2-(1-(2-(2-methoxyphenyl)-2-((tetrahydro-2H-pyran-4-yl)oxy)ethyl)-5-methyl-2,4-dioxo-6-(2H-1,2,3-triazol-2-yl)-1,4-dihydrothieno[2,3-d]pyrimidin-3(2H)-yl)-2-methylpropanamide]",1 to 5,1 to 5,0.25 to 1,1.01 to 2,1.1 to 2,2.01 to 4,10,> 50,0.08,0.08,10,> 50,> 50,> 50,10,> 50,> 50,> 50,,
